Assay results: patent US20240116922A1, “IMIDAZO[1,2-A]PYRIDINE DERIVATIVES AS IRAK4 INHIBITORS AND THEIR USE IN THE TREATMENT OF DISEASE” (BIOGEN MA INC., priority 2020, published 2024)
Values after ≈ are worked out from the molar mass of the structure shown. Counter-ions that a name gives are not always drawn.

Columns and labels:
MDR1 = MDR1 (Homo sapiens (Human), UniProt P08183); test: in vitro; conditions: MDCK-MDR1
[1] = Kinetic solubility assay (CLND), pH 6.8; assay type: physicochemical; conditions: aqueous buffer, kinetic from dmso stock; potassium phosphate buffer pH 6.8, 2% DMSO, 24 hours at ambient temperature
IRAK4 = IRAK4 (Homo sapiens (Human), UniProt Q9NWZ3); test: IRAK4 MSD biochemical assay (2-hour 1 mM ATP); conditions: 0.1 nM IRAK4, 1 mM ATP, 2 hour at room temperature
IRAK4, sequence (Q9NWZ3 whole entry): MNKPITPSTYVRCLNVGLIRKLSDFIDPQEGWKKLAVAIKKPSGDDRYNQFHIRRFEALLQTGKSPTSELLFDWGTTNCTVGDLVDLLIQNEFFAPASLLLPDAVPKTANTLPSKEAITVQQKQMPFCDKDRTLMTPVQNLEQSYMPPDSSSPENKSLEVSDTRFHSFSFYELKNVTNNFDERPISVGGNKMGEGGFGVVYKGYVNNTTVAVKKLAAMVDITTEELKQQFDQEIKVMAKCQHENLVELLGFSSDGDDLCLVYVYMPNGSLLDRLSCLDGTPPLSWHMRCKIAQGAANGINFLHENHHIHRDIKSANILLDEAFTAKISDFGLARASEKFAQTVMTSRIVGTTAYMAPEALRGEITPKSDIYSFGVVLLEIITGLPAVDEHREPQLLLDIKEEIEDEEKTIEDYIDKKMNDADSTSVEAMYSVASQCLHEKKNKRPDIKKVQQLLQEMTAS

MDR1, sequence (P08183 whole entry): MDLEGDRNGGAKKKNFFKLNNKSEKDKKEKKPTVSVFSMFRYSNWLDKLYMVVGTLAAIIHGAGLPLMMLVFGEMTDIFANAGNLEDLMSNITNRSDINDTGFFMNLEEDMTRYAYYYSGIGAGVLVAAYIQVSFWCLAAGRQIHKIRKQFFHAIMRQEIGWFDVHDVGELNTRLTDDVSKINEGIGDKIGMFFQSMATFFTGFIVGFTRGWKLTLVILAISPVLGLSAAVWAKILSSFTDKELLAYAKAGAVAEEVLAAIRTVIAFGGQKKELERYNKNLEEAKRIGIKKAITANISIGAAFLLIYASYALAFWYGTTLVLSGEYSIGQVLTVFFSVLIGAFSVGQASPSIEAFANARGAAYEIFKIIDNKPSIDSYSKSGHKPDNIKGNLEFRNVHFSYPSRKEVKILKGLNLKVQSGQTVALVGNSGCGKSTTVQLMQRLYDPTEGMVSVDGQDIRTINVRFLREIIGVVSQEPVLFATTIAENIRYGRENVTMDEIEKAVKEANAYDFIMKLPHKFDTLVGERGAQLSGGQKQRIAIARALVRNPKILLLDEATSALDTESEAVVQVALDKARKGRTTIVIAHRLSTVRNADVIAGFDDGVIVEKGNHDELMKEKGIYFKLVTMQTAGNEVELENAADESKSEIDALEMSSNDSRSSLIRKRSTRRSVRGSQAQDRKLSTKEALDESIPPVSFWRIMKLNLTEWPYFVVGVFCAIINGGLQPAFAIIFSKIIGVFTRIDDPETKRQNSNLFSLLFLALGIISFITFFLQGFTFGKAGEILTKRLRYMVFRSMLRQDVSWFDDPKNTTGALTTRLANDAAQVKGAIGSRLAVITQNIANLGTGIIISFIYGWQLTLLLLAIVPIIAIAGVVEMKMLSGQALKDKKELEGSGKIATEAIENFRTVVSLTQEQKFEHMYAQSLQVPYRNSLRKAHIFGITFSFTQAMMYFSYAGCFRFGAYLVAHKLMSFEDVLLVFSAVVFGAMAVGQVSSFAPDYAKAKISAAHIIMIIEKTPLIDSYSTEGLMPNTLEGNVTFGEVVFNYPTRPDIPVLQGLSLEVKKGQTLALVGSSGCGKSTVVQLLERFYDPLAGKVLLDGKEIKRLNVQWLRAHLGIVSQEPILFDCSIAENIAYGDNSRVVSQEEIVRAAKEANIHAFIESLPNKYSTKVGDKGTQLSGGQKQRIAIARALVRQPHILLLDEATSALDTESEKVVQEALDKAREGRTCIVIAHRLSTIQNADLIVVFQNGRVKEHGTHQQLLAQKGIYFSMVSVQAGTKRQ

| efflux ratio at 120 min, 1 μM (MDR1) | solubility kinetic at 24 h [1] [mg/mL] | IC50 (IRAK4) [nM] | SMILES |
| --- | --- | --- | --- |
| 3.9 | 0.0318 | 0.2 | CC(C)Oc1cc2nc([C@@]34CC[C@@](C)(C3)OC4)cn2cc1C(=O)Nc1cccn([C@H]2C[C@H]2C)c1=O [Example 182, 7-isopropoxy-2-((1S,4R)-1-methyl-2-oxabicyclo[2.2.1]heptan-4-yl)-N-(1-((1S,2R)-2-methylcyclopropyl)-2-oxo-1,2-dihydropyridin-3-yl)imidazo[1,2-a]pyridine-6-carboxamide trifluoroacetate] |
| 15.8 | 0.0387 (≈ 83.3 µM) | 0.7 | CC12CC(c3cn4cc(C(=O)Nc5cccn([C@@H]6C[C@@H]6F)c5=O)c(OC5CC5)cc4n3)(CO1)C2 (racemic) [Example 105, (rac)-Cis-7-cyclopropoxy-N-(1-(2-fluorocyclopropyl)-2-oxo-1,2-dihydropyridin-3-yl)-2-(1-methyl-2-oxabicyclo[2.1.1]hexan-4-yl)imidazo[1,2-a]pyridine-6-carboxamide] |
| 1.7 | 0.0297 (≈ 61.8 µM) | 0.9 | CC(C)Oc1c(C(=O)Nc2cccn([C@H]3C[C@@H]3C)c2=O)cn2cc(C34COC(C)(C3)C4)nc2c1F [Example 146, 8-fluoro-7-isopropoxy-2-(1-methyl-2-oxabicyclo[2.1.1]hexan-4-yl)-N-(1-((1S,2S)-2-methylcyclopropyl)-2-oxo-1,2-dihydropyridin-3-yl)imidazo[1,2-a]pyridine-6-carboxamide] |
| 4.3 | 0.0745 (≈ 167 µM) | 1.7 | CC12CC(c3cn4cc(C(=O)Nc5cccn(C6CC6)c5=O)c(OC5CC5)cc4n3)(CO1)C2 [Example 104, 7-cyclopropoxy-N-(1-cyclopropyl-2-oxo-1,2-dihydropyridin-3-yl)-2-(1-methyl-2-oxabicyclo[2.1.1]hexan-4-yl)imidazo[1,2-a]pyridine-6-carboxamide] |
| 8.9 | 0.043 (≈ 92.6 µM) | 0.2 | CC12CC(c3cn4cc(C(=O)Nc5cccn([C@H]6C[C@H]6F)c5=O)c(OC5CC5)cc4n3)(CO1)C2 [Example 175, 7-cyclopropoxy-N-(1-((1S,2R)-2-fluorocyclopropyl)-2-oxo-1,2-dihydropyridin-3-yl)-2-(1-methyl-2-oxabicyclo[2.1.1]hexan-4-yl)imidazo[1,2-a]pyridine-6-carboxamide] |
| 1.7 | 0.0606 (≈ 127 µM) | 0.7 | CC(C)Oc1cc2nc([C@@]34CC[C@@](C)(C3)OC4)cn2cc1C(=O)Nc1cccn([C@H]2C[C@@H]2C)c1=O (single isomer, unassigned) [Example 192] |
| 1.5 | 0.0485 (≈ 102 µM) | 0.4 | CC(C)Oc1cc2nc([C@@]34CC[C@@](C)(C3)OC4)cn2cc1C(=O)Nc1cccn([C@@H]2C[C@H]2C)c1=O (single isomer, unassigned) [Example 191] |
| 10.4 | 0.0686 (≈ 143 µM) | 0.3 | CC12CC(c3cn4cc(C(=O)Nc5cccn([C@H]6C[C@H]6F)c5=O)c(OC5CCC5)nc4n3)(CO1)C2 (single isomer, unassigned) [Example 114] |

The next lines start with the molecule.

| SMILES | efflux ratio at 120 min, 1 μM (MDR1) | solubility kinetic at 24 h [1] [mg/mL] | IC50 (IRAK4) [nM] |
| --- | --- | --- | --- |
| C[C@@H]1C[C@@H]1n1cccc(NC(=O)c2cn3cc(C45COC(C)(C4)C5)nc3nc2OC2CCC2)c1=O [Example 188, 7-cyclobutoxy-2-(1-methyl-2-oxabicyclo[2.1.1]hexan-4-yl)-N-(1-((1S,2R)-2-methylcyclopropyl)-2-oxo-1,2-dihydropyridin-3-yl)imidazo[1,2-a]pyrimidine-6-carboxamide trifluoroacetate] | 4.4 | 0.0497 | 0.8 |
| CC(C)Oc1cc2nc([C@@]34CC[C@@H](C3)OC4)cn2cc1C(=O)Nc1cccn(C2CC2)c1=O (single isomer, unassigned) [Example 39] | 6.8 | 0.0689 (≈ 154 µM) | 0.2 |
| CC(C)Oc1cc2nc([C@]34CC[C@H](C3)OC4)cn2cc1C(=O)Nc1cccn(C2CC2)c1=O (single isomer, unassigned) [Example 40] | 7.5 | 0.0702 (≈ 157 µM) | 0.4 |
| CC(C)Oc1cc2nc([C@@]34CC[C@@](C)(C3)OC4)cn2cc1C(=O)Nc1cccn(C2C[C@H]2C)c1=O (stereo partly drawn) [Example 98, trans-7-isopropoxy-2-((1S,4R)-1-methyl-2-oxabicyclo[2.2.1]heptan-4-yl)-N-(1-(2-methylcyclopropyl)-2-oxo-1,2-dihydropyridin-3-yl)imidazo[1,2-a]pyridine-6-carboxamide] | 2.1 | 0.0897 (≈ 188 µM) | 0.7 |
| CC(C)Oc1nc2nc([C@@]34CC[C@@](C)(C3)OC4)cn2cc1C(=O)Nc1ccn(C)n1 (single isomer, unassigned) [Comparator 4C, reference compound] | 4.6 | 0.0513 (≈ 125 µM) | 2.5 |
| CC[C@H](C)Oc1nc2nc(C34COC(C)(C3)C4)cn2cc1C(=O)Nc1cccn([C@H]2C[C@H]2F)c1=O (single isomer, unassigned) [Example 60] | 9 | 0.0555 (≈ 115 µM) | 0.2 |
| COC12CC(c3cn4cc(C(=O)Nc5cccn(C6CC6)c5=O)c(OC(C)C)cc4n3)(C1)C2 [Example 62, N-(1-cyclopropyl-2-oxo-1,2-dihydropyridin-3-yl)-7-isopropoxy-2-(3-methoxybicyclo[1.1.1]pentan-1-yl)imidazo[1,2-a]pyridine-6-carboxamide] | 3.6 | 0.0582 (≈ 130 µM) | 0.4 |
| CC[C@H](C)Oc1nc2nc(C34CCC(CF)(C3)OC4)cn2cc1C(=O)Nc1cccn(C2CC2)c1=O (stereo partly drawn) [Example 56, 7-((S)-sec-butoxy)-N-(1-cyclopropyl-2-oxo-1,2-dihydropyridin-3-yl)-2-(1-(fluoromethyl)-2-oxabicyclo[2.2.1]heptan-4-yl)imidazo[1,2-a]pyrimidine-6-carboxamide] | 4.1 | 0.0675 (≈ 136 µM) | 0.6 |
| CCC(C)Oc1cc2nc([C@@]34CC[C@@](C)(C3)OC4)cn2cc1C(=O)Nc1cccn(C2CC2)c1=O (stereo partly drawn) [Example 20, 7-(sec-butoxy)-N-(1-cyclopropyl-2-oxo-1,2-dihydropyridin-3-yl)-2-((1S,4R)-1-methyl-2-oxabicyclo[2.2.1]heptan-4-yl)imidazo[1,2-a]pyridine-6-carboxamide] | 2.8 | 0.0681 (≈ 143 µM) | 0.7 |
| CC(Oc1cc2nc(C34COC(C)(C3)C4)cn2cc1C(=O)Nc1cccn(C2CC2)c1=O)C(F)F [Example 102, (S)—N-(1-cyclopropyl-2-oxo-1,2-dihydropyridin-3-yl)-7-((1,1-difluoropropan-2-yl)oxy)-2-(1-methyl-2-oxabicyclo[2.1.1]hexan-4-yl)imidazo[1,2-a]pyridine-6-carboxamide] | 10.8 | 0.0693 (≈ 143 µM) | 0.3 |
| C[C@@]12CC[C@@](c3cn4cc(C(=O)Nc5cccn(C6CC6)c5=O)c(OC5CCC5)nc4n3)(CO1)C2 (single isomer, unassigned) [Example 16] | 2.8 | 0.0052 (≈ 10.9 µM) | 0.3 |
